# Assay results reported in patent US9717714B2, “Spirocyclic CETP inhibitors” (Merck Sharp & Dohme Corp., priority 2012, dated 2017).
# Molecular target: endogenous CETP from serum (Homo sapiens (Human), UniProt P11597)
# Assay: RTA assay in 95% human serum (CETP-catalyzed CE and TG transfer, endogenous CETP)
# Type: biochemical
# Settings: 95% human serum; read-out: RTA (95% HS)
# From the text: In Vitro Radioactive Assays of CETP-Catalyzed CE and TG Transfer (RTA Assay)
# Reagents and sources are: [3H] cholesteryl oleate (GE #TRK.886), [3H] Triolein (Perkin-Elmer NET-431), Butylated hydroxyl toluene (Aldrich, #D4740-4), DOPC (Sigma, #P6354), Sodium Bromide (Fisher scientific #S255-500), PEG 8000 (Fisher, #BP233-1), and human HDL (Intracel Corp #RP-036).
# Both assays measure the transfer of [3H] cholesteryl oleate or [3H] triolein from exogenous LDL to HDL.
# Radiolabeled donor particles are generated by first combining 100 μl of 200 μM butylated hydroxyl toluene in CHCl3, 216 μL of 21.57 mM DOPC in EtOH, and either 500 μCi [3H]-triolein (Perkin Elmer #NET-431) or 500 μCi [3H]-cholesteryl oleate (GE #TRK886) in a glass tube. Reagents are mixed, dried under nitrogen, and then resuspended in 2 mL of 50 mM Tris, 27 μM EDTA at pH 7.4. After a brief vortex, the solution is sonicated until clear and mixed with 20 mL of fresh human serum. The mixture is incubated overnight at 37° C. The [3H] labeled LDL substrate is separated at 1.063 g/ml density by sequential ultracentrifugal flotation in NaBr according to the method of Havel, Eder, et al., 1955, and Chapman, Goldstein, et al., 1981. Once isolated the particles are dialyzed 3× in CETP buffer (50 mM Tris, pH 7.4, 100 mM NaCl, 1 mM EDTA). Human HDL is purchased from Intracel and used as the acceptor particles.
# Transfer assays are performed in a 96-well v-bottom polypropylene plate. For the RTA using recombinant CETP (2% RTA), an assay cocktail is prepared with the final concentrations 128 μg/mL HDL, 20 nM rCETP, 2% human serum, and 1×CETP buffer. 1 μL of each test compound diluted in DMSO is added to 47 μL of assay cocktail per well and incubated at 37° C. for 1 hour. To initiate the transfer reaction, 2 μL radiolabeled LDL is added. After an additional 60 min of incubation at 37° C., the transfer action is terminated by precipitation of LDL with an equal volume of 20% W/V PEG 8000. The plates are centrifuged at 2000 rpm for 30 minutes at 4° C. A 40 μL aliquot of the HDL-containing supernatant is transferred to a Packard Optiplate™ with 200 μL of MicroScint™ 20. After mixing, plates are counted by liquid scintillation. Counts present in the supernatant for blanks (wells containing only HDL acceptor, CETP buffer and DMSO) are subtracted from those containing test compounds and used to correct for non-specific transfer.
# For the transfer assay using endogenous CETP from serum (95% RTA), the same procedure is used except that human serum is added such that a final concentration of serum of 95% of the total assay volume is achieved, yielding a concentration of approximately 15 nM endogenous CETP in the assay. This is then combined with HDL and CETP buffer and the reaction proceeds as above and is terminated as described.
# Comparison of the counts of samples with inhibitors to an uninhibited (DMSO only) positive control yield a percent inhibition. A plot of percent inhibition vs. log of inhibitor concentration, fit to a Sigmoidal 4 parameter equation is used to calculate IC50.
# Starting materials are commercially available or are made using known procedures or as shown below. The examples may be synthesized according to the general schemes provided below and through the synthetic intermediates that are described. […] When compounds of Formula I or Formula II are mentioned herein, such compounds include compounds defined generically by Formula I or II and also the specific examples disclosed herein.
# Sequence of endogenous CETP from serum (P11597 18-493 limits assumed): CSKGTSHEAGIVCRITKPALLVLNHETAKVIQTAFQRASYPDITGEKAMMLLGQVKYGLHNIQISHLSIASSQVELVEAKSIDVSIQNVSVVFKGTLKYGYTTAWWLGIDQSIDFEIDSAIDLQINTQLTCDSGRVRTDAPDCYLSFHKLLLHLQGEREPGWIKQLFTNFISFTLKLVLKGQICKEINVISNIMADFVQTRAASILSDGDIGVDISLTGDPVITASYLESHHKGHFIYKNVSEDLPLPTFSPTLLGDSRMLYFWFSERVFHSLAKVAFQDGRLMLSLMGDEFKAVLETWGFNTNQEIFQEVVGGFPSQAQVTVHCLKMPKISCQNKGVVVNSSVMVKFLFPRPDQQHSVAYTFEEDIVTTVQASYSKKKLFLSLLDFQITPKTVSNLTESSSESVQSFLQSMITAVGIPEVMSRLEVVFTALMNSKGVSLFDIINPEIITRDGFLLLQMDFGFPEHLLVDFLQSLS
row,Structure (SMILES),IC50
1,"COc1ccc([C@H]2C[C@H](CO)C2)cc1-c1ccc(C(F)(F)F)nc1CN1C(=O)O[C@H](c2cc(C(F)(F)F)cc(C(F)(F)F)c2)C12CC2 [Example 6, (7R)-7-[3,5-bis(trifluoromethyl)phenyl]-4-{[3-{5-[trans-3-(hydroxymethyl)cyclobutyl]-2-methoxyphenyl}-6-(trifluoromethyl)pyridin-2-yl]methyl}-6-oxa-4-azaspiro[2.4]heptan-5-one]",1850 nM
2,"COC(=O)c1ccc(-c2ccc(OC)c(-c3cnc(SC)nc3CN3C(=O)O[C@H](c4cc(C(F)(F)F)cc(C(F)(F)F)c4)C34CCC4)c2)c(C)c1 [Example 17, methyl 3′-[4-({(8R)-8-[3,5-bis(trifluoromethyl)phenyl]-6-oxo-7-oxa-5-azaspiro[3.4]oct-5-yl}methyl)-2-(methylsulfanyl)pyrimidin-5-yl]-4′-methoxy-2-methylbiphenyl-4-carboxylate]",913 nM
3,"COc1ccc([C@H]2C[C@H](C(=O)O)C2)cc1-c1ccc(C(F)(F)F)nc1CN1C(=O)O[C@H](c2cc(C(F)(F)F)cc(C(F)(F)F)c2)C12CC2 [Example 1, trans-3-{3-[2-({(7R)-7-[3,5-bis(trifluoromethyl)phenyl]-5-oxo-6-oxa-4-azaspiro[2.4]hept-4-yl}methyl)-6-(trifluoromethyl)pyridin-3-yl]-4-methoxyphenyl}cyclobutanecarboxylic acid]",962 nM
4,"COc1ccc(-c2ccc(C(=O)O)cc2C)cc1-c1cnc(N(C)C)nc1CN1C(=O)O[C@H](c2cc(C(F)(F)F)cc(C(F)(F)F)c2)C12CC2 [Example 9, 3′-[4-({(7R)-7-[3,5-bis(trifluoromethyl)phenyl]-5-oxo-6-oxa-4-azaspiro[2.4]hept-4-yl}methyl)-2-(dimethylamino)pyrimidin-5-yl]-4′-methoxy-2-methylbiphenyl-4-carboxylic acid]",55.5 nM

# Same assay, conditions: generally RTA assay in 95% human serum; read-out: IC50
row,Structure (SMILES),IC50
1,"COc1ccc(-c2ccc(C(=O)O)cc2C)cc1-c1cnc(N2CC(F)C2)nc1CN1C(=O)O[C@H](c2cc(C(F)(F)F)cc(C(F)(F)F)c2)C12CC2 [Example 15, 3′-[4-({(7R)-7-[3,5-bis(trifluoromethyl)phenyl]-5-oxo-6-oxa-4-azaspiro[2.4]hept-4-yl}methyl)-2-(3-fluoroazetidin-1-yl)pyrimidin-5-yl]-4′-methoxy-2-methylbiphenyl-4-carboxylic acid]",104 nM
2,"COc1ncc(-c2ccc(C(=O)O)cc2C)cc1-c1ccc(C(F)(F)F)nc1CN1C(=O)O[C@H](c2cc(C(F)(F)F)cc(C(F)(F)F)c2)C12CC2 [Example 4, 4-[2′-({(7R)-7-[3,5-bis(trifluoromethyl)phenyl]-5-oxo-6-oxa-4-azaspiro[2.4]hept-4-yl}methyl)-2-methoxy-6′-(trifluoromethyl)-3,3′-bipyridin-5-yl]-3-methylbenzoic acid]",173 nM
3,"COc1ccc(-c2ccc(C(=O)O)cc2C)cc1-c1cnc(N2CCOCC2)nc1CN1C(=O)O[C@H](c2cc(C(F)(F)F)cc(C(F)(F)F)c2)C12CCC2 [Example 13, 3′-[4-({(8R)-8-[3,5-bis(trifluoromethyl)phenyl]-6-oxo-7-oxa-5-azaspiro[3.4]oct-5-yl}methyl)-2-morpholin-4-ylpyrimidin-5-yl]-4′-methoxy-2-methylbiphenyl-4-carboxylic acid]",242 nM
4,"COc1ccc(-c2ccc(CO)cc2C)cc1-c1cnc(N2CC(F)C2)nc1CN1C(=O)O[C@H](c2cc(C(F)(F)F)cc(C(F)(F)F)c2)C12CCC2 [Example 7, (8R)-8-[3,5-bis(trifluoromethyl)phenyl]-5-({2-(3-fluoroazetidin-1-yl)-5-[4′-(hydroxymethyl)-4-methoxy-2′-methylbiphenyl-3-yl]pyrimidin-4-yl}methyl)-7-oxa-5-azaspiro[3.4]octan-6-one]",68 nM
5,"COC(=O)c1ccc(-c2ccc(OC)c(-c3cnc(SC)nc3CN3C(=O)O[C@H](c4cc(C(F)(F)F)cc(C(F)(F)F)c4)C34CC4)c2)c(C)c1 [Example 18, methyl 3′-[4-({(7R)-7-[3,5-bis(trifluoromethyl)phenyl]-5-oxo-6-oxa-4-azaspiro[2.4]hept-4-yl}methyl)-2-(methylsulfanyl)pyrimidin-5-yl]-4′-methoxy-2-methylbiphenyl-4-carboxylate]",596 nM
6,"COc1ccc(CCC(=O)O)cc1-c1ccc(C(F)(F)F)nc1CN1C(=O)O[C@H](c2cc(C(F)(F)F)cc(C(F)(F)F)c2)C12CC2 [Example 5, 3-{3-[2-({(7R)-7-[3,5-bis(trifluoromethyl)phenyl]-5-oxo-6-oxa-4-azaspiro[2.4]hept-4-yl}methyl)-6-(trifluoromethyl)pyridin-3-yl]-4-methoxyphenyl}propanoic acid]",3360 nM
7,"COc1ccc(-c2ccc(C(=O)O)cc2C)cc1-c1ccc(C(F)(F)F)nc1CN1C(=O)O[C@H](c2cc(C(F)(F)F)cc(C(F)(F)F)c2)C12CC2 [Example 2, 3′-[2-({(7R)-7-[3,5-bis(trifluoromethyl)phenyl]-5-oxo-6-oxa-4-azaspiro[2.4]hept-4-yl}methyl)-6-(trifluoromethyl)pyridine-3-yl]-4′-methoxy-2-methylbiphenyl-4-carboxylic acid]",212 nM
8,"COc1ccc(-c2ccc(C(=O)O)cc2C)cc1-c1cnc(N2CC(F)C2)nc1CN1C(=O)O[C@H](c2cc(C(F)(F)F)cc(C(F)(F)F)c2)C12CCC2 [Example 12, 3′-[4-({(8R)-8-[3,5-bis(trifluoromethyl)phenyl]-6-oxo-7-oxa-5-azaspiro[3.4]oct-5-yl}methyl)-2-(3-fluoroazetidin-1-yl)pyrimidin-5-yl]-4′-methoxy-2-methylbiphenyl-4-carboxylic acid]",73 nM
9,"COc1cc(F)c(C(C)C)cc1-c1cnc(N(C)C)nc1CN1C(=O)OC(c2cc(C(F)(F)F)cc(C(F)(F)F)c2)C12CCC2 (centres unmarked) [Example 11, 8-[3,5-bis(trifluoromethyl)phenyl]-5-({2-(dimethylamino)-5[4-fluoro-2-methoxy-5-(1-methylethyl)phenyl]pyrimidin-4-yl}methyl)-7-oxa-5-azaspiro[3.4]octan-6-one]",318 nM
10,"COc1ccc(-c2ccc(C(=O)O)cc2C)cc1-c1cnc(N(C)S(C)(=O)=O)nc1CN1C(=O)O[C@H](c2cc(C(F)(F)F)cc(C(F)(F)F)c2)C12CCC2 [Example 14, 3′-[4-({(8R)-8-[3,5-bis(trifluoromethyl)phenyl]-6-oxo-7-oxa-5-azaspiro[3.4]oct-5-yl}methyl)-2-[methyl (methylsulfonyl)amino]pyrimidin-5-yl}-4′-methoxy-2-methylbiphenyl-4-carboxylic acid]",561 nM
11,"COc1cc(F)c(C(C)C)cc1-c1cnc(N(C)C)nc1CN1C(=O)OC(c2cc(C(F)(F)F)cc(C(F)(F)F)c2)C12CC2 (centres unmarked) [Example 10, 7-[3,5-bis(trifluoromethyl)phenyl]-4-({2-(dimethylamino)-5-[4-fluoro-2-methoxy-5-(1-methylethyl)phenyl]pyrimidin-4-yl}methyl)-6-oxa-4-azaspiro[2.4]heptan-5-one]",345 nM
12,"COc1ccc(-c2ccc(C(=O)O)cc2C)cc1-c1cnc(N2CCOCC2)nc1CN1C(=O)O[C@H](c2cc(C(F)(F)F)cc(C(F)(F)F)c2)C12CC2 [Example 16, 3′-[4-({(7R)-7-[3,5-bis(trifluoromethyl)phenyl]-5-oxo-6-oxa-4-azaspiro[2.4]hept-4-yl}methyl)-2-morpholin-4-ylpyrimidin-5-yl]-4′-methoxy-2-methylbiphenyl-4-carboxylic acid]",272 nM
13,"COc1cc(F)c(-c2ccc(C(=O)O)cc2C)cc1-c1ccc(C(F)(F)F)nc1CN1C(=O)O[C@H](c2cc(C(F)(F)F)cc(C(F)(F)F)c2)C12CC2 [Example 3, 5′-[2-({(7R)-7-[3,5-bis(trifluoromethyl)phenyl]-5-oxo-6-oxa-4-azaspiro[2.4]hept-4-yl}methyl)-6-(trifluoromethyl)pyridin-3-yl]-2′-fluoro-4′-methoxy-2-methylbiphenyl-4-carboxylic acid]",119 nM
